Laboratory results published in patent US8088936B2, “Leukotriene B4 inhibitors” (Hoffman-La Roche Inc., priority 2009, dated 2012).

Test system: Human leukemia HL-60 cells endogenously expressing BLT1 and BLT2 receptors
Experiment: Ca2+ flux assay for LTB4 antagonist assay (HL-60 FLIPR)
Type: cell-based
Conditions: retinoic acid induced HL-60 cells, inhibition of LTB4-induced Ca2+ flux, 30 min preincubation; read-out: LTB4 antagonism (HL-60 FLIPR)
Experimental: Assay of Compounds for Inhibition of LTB4 Activity
Ca^2+Flux Assay for LTB4 Antagonist Assay
Human leukemia HL-60 cells endogenously expressing BLT1 and BLT2 receptors were cultured in RPMI-1640 medium supplemented with 20% fetal bovine serum, 2 mM glutamine, 100 U/ml penicillin and 100 ug/ml streptomycin.
Seventy two hours prior to experiment cells are counted using ViaCount reagent, centrifuged and resuspended at 2.0×10^5 cells/ml density with the complete growth media containing 1 μM Retinoic Acid (Sigma).
On a day of the experiment loading buffer (Calcium-3 Assay Kit, Molecular Devices) was prepared by dissolving the contents of one vial (Express Kit) into 500 ml Hank's Balanced Salt Solution containing 20 mM HEPES and 5 mM probenecid. Equal volume of the loading buffer was mixed with the replacement buffer (Hank's Balanced Salt Solution containing 20 mM HEPES, 0.05% BSA and 5 mM probenecid). Retinoic Acid induced HL-60 cells were counted using ViaCount reagent, centrifuged and resuspended at 2.0×10^6 cells/ml density with the loading buffer/replacement buffer, dispensed into 384 well black/clear microplates (Falcon) (25 μl/well) and placed in a 37° C./5% CO2 incubator for 1 hour.
During the incubation, test compounds were prepared at 6× the desired concentration in HBSS/20 mM HEPES/0.05% BSA as well as LTB4 (Biomol) was prepared at 2.2× concentration in HBSS/20 mM HEPES/0.5% BSA buffer.
After the incubation, both the cell and compound plates were brought to the FLIPR and 5 μl of the diluted compounds were transferred to the cell plates by the FLIPR. Plates were then incubated for 30 min at room temperature. After the ½ hour incubation, plates were returned to the FLIPR and 25 μl of 2.2×LTB4 was added to the cell plates. During the assay, fluorescence readings were taken simultaneously from all 384 wells of the cell plate every 1.5 seconds. Five readings were taken to establish a stable baseline, then 25 μl (LTB4) of sample was rapidly and simultaneously added to each well of the cell plate. The fluorescence was continuously monitored before, during and after sample addition for a total elapsed time of 100 seconds. Responses (increase in peak fluorescence) in each well following agonist addition was determined. The initial fluorescence reading from each well, prior to ligand stimulation, was used a zero baseline value for the data from that well. The responses are expressed as % inhibition of the neutral control (neural control: wells that received buffer plus DMSO but no test compound).

| Compound | IC50 [nM] |
| --- | --- |
| CCOc1cc(OCCCCCCc2cccc(OCCCC(=O)O)c2CCC(=O)O)cc(-c2ccccc2)c1 [Example 44, 4-[2-(2-Carboxy-ethyl)-3-[6-(5-ethoxy-biphenyl-3-yloxy)-hexyl]-phenoxy]-butyric acid] | 1.26 |
| O=C(O)CCCOc1cccc(CCCCCCOc2cc(CO)cc(-c3ccc(F)cc3)c2)c1CCC(=O)O [Example 4, 4-{2-(2-Carboxy-ethyl)-3-[6-(4′-fluoro-5-hydroxymethyl-biphenyl-3-yloxy)-hexyl]-phenoxy}-butyric acid] | 29.6 |
| O=C(O)CCCOc1cccc(CCCCCCOc2cc(C(=O)C3CCCC3)cc(-c3ccc4c(c3)OCO4)c2)c1CCC(=O)O [Example 73, 4-[3-[6-(3-Benzo[1,3]dioxol-5-yl-5-cyclopentanecarbonyl-phenoxy)-hexyl]-2-(2-carboxy-ethyl)-phenoxy]-butyric acid] | 0.77 |
| CN(C)Cc1cc(OCCCCCCc2cccc(OCCCC(=O)O)c2CCC(=O)O)cc(-c2cccc(S(C)(=O)=O)c2)c1 [Example 39, 4-{2-(2-Carboxy-ethyl)-3-[6-(5-dimethylaminomethyl-3′-methanesulfonyl-biphenyl-3-yloxy)-hexyl]-phenoxy}-butyric acid] | 70.8 |
| COCc1cc(OCCCCCCc2cccc(OCCCC(=O)O)c2CCC(=O)O)cc(-c2cc(F)cc(F)c2)c1 [Example 16, 4-{2-(2-Carboxy-ethyl)-3-[6-(3′,5′-difluoro-5-methoxymethyl-biphenyl-3-yloxy)-hexyl]-phenoxy}-butyric acid] | 14.8 |
| CCOCc1cc(OCCCCCCc2cccc(OCCCC(=O)O)c2CCC(=O)O)cc(-c2ccc(C(F)(F)F)cc2)c1 [Example 27, 4-{2-(2-Carboxy-ethyl)-3-[6-(5-ethoxymethyl-4′-trifluoromethyl-biphenyl-3-yloxy)-hexyl]-phenoxy}-butyric acid] | 6.24 |
| CCOc1cc(OCCCCCCc2cccc(OCCCC(=O)O)c2CCC(=O)O)cc(-c2ccc3cc[nH]c3c2)c1 [Example 55, 4-[2-(2-Carboxy-ethyl)-3-{6-[3-ethoxy-5-(1H-indol-6-yl)-phenoxy]-hexyl}-phenoxy]-butyric acid] | 6.69 |
| CN(C)Cc1cc(OCCCCCCc2cccc(OCCCC(=O)O)c2CCC(=O)O)cc(-c2ccncc2)c1 [Example 40, 4-{2-(2-Carboxy-ethyl)-3-[6-(3-dimethylaminomethyl-5-pyridin-4-yl-phenoxy)-hexyl]-phenoxy}-butyric acid] | 0.42 |
| CN(C)Cc1cc(OCCCCCCc2cccc(OCCCC(=O)O)c2CCC(=O)O)cc(-c2cccc(F)c2)c1 [Example 36, 4-{2-(2-Carboxy-ethyl)-3-[6-(5-dimethylaminomethyl-3′-fluoro-biphenyl-3-yloxy)-hexyl]-phenoxy}-butyric acid] | 0.14 |
| COCc1cc(OCCCCCCc2cccc(OCCCC(=O)O)c2CCC(=O)O)cc(-c2cscc2C)c1 [Example 13, 4-(2-(2-Carboxy-ethyl)-3-{6-[3-methoxymethyl-5-(4-methyl-thiophen-3-yl)-phenoxy]-hexyl}-phenoxy)-butyric acid] | 140 |
| COCc1cc(OCCCCCCc2cccc(OCCCC(=O)O)c2CCC(=O)O)cc(-c2ccc(OC(F)(F)F)cc2)c1 [Example 20, 4-{2-(2-Carboxy-ethyl)-3-[6-(5-methoxymethyl-4′-trifluoromethoxy-biphenyl-3-yloxy)-hexyl]-phenoxy}-butyric acid] | 15.1 |
| COCc1cc(OCCCCCCc2cccc(OCCCC(=O)O)c2CCC(=O)O)cc(-c2ccc(F)c(F)c2)c1 [Example 21, 4-[2-(2-Carboxy-ethyl)-3-[6-(3′,4′-difluoro-5-methoxymethyl-biphenyl-3-yloxy)-hexyl]-phenoxy]-butyric acid] | 2.66 |
| COCc1cc(OCCCCCCc2cccc(OCCCC(=O)O)c2CCC(=O)O)cc(-c2ccccc2)c1 [Example 9, 4-{2-(2-Carboxy-ethyl)-3-[6-(5-methoxymethyl-biphenyl-3-yloxy)-hexyl]-phenoxy}-butyric acid] | 1.93 |
| COCc1cc(OCCCCCCc2cccc(OCCCC(=O)O)c2CCC(=O)O)cc(-c2cncnc2)c1 [Example 22, 4-[2-(2-Carboxy-ethyl)-3-[6-(3-methoxymethyl-5-pyrimidin-5-yl-phenoxy)-hexyl]-phenoxy]-butyric acid] | 339 |
| CCOc1cc(OCCCCCCc2cccc(OCCCC(=O)O)c2CCC(=O)O)cc(-c2ccc(Cl)cc2)c1 [Example 49, 4-[2-(2-Carboxy-ethyl)-3-[6-(4′-chloro-5-ethoxy-biphenyl-3-yloxy)-hexyl]-phenoxy]-butyric acid] | 6.05 |
| COCc1cc(OCCCCCCc2cccc(OCCCC(=O)O)c2CCC(=O)O)cc(-c2ccc3[nH]ccc3c2)c1 [Example 23, 4-[2-(2-Carboxy-ethyl)-3-{6-[3-(1H-indol-5-yl)-5-methoxymethyl-phenoxy]-hexyl}-phenoxy]-butyric acid] | 30.2 |
| CCOCc1cc(OCCCCCCc2cccc(OCCCC(=O)O)c2CCC(=O)O)cc(-c2ccc(S(C)(=O)=O)cc2)c1 [Example 29, 4-[2-(2-Carboxy-ethyl)-3-[6-(5-ethoxymethyl-4′-methanesulfonyl-biphenyl-3-yloxy)-hexyl]-phenoxy]-butyric acid] | 16 |
| CCOCc1cc(OCCCCCCc2cccc(OCCCC(=O)O)c2CCC(=O)O)cc(-c2ccc(Cl)cc2)c1 [Example 28, 4-{2-(2-Carboxy-ethyl)-3-[6-(5-ethoxymethyl-4′-chloro-biphenyl-3-yloxy)-hexyl]-phenoxy}-butyric acid] | 6.51 |
| O=C(O)CCCOc1cccc(CCCCCCOc2cc(OCC3CCCC3)cc(-c3cccc(F)c3)c2)c1CCC(=O)O [Example 63, 4-[2-(2-Carboxy-ethyl)-3-[6-(5-cyclopentylmethoxy-3′-fluoro-biphenyl-3-yloxy)-hexyl]-phenoxy]-butyric acid] | 32.5 |
| CCOc1cc(OCCCCCCc2cccc(OCCCC(=O)O)c2CCC(=O)O)cc(-c2ccnc(Cl)c2)c1 [Example 52, 4-[2-(2-Carboxy-ethyl)-3-[6-[3-(2-chloro-pyridin-4-yl)-5-ethoxy-phenoxy]-hexyl]-phenoxy]-butyric acid] | 6.94 |
| COCc1cc(OCCCCCCc2cccc(OCCCC(=O)O)c2CCC(=O)O)cc(-c2ccc(Cl)cc2)c1 [Example 11, 4-{2-(2-Carboxy-ethyl)-3-[6-(4′-chloro-5-methoxymethyl-biphenyl-3-yloxy)-hexyl]-phenoxy}-butyric acid] | 1.37 |
| CCOc1cc(OCCCCCCc2cccc(OCCCC(=O)O)c2CCC(=O)O)cc(-c2ccc3[nH]ccc3c2)c1 [Example 54, 4-[2-(2-Carboxy-ethyl)-3-{6-[3-ethoxy-5-(1H-indol-5-yl)-phenoxy]-hexyl}-phenoxy]-butyric acid] | 34.2 |
| CC(=O)c1cc(OCCCCCCc2cccc(OCCCC(=O)O)c2CCC(=O)O)cc(-c2ccccc2)c1 [Example 66, 4-[3-[6-(5-Acetyl-biphenyl-3-yloxy)-hexyl]-2-(2-carboxy-ethyl)-phenoxy]-butyric acid] | 3.33 |
| CCOc1cc(OCCCCCCc2cccc(OCCCC(=O)O)c2CCC(=O)O)cc(-c2ccsc2)c1 [Example 45, 4-[2-(2-Carboxy-ethyl)-3-[6-(3-ethoxy-5-thiophen-3-yl-phenoxy)-hexyl]-phenoxy]-butyric acid] | 0.4 |
| CN(C)Cc1cc(OCCCCCCc2cccc(OCCCC(=O)O)c2CCC(=O)O)cc(-c2ccc(S(C)(=O)=O)cc2)c1 [Example 38, 4-{2-(2-Carboxy-ethyl)-3-[6-(5-dimethylaminomethyl-4′-methanesulfonyl-biphenyl-3-yloxy)-hexyl]-phenoxy}-butyric acid] | 2.22 |
| CCOCc1cc(OCCCCCCc2cccc(OCCCC(=O)O)c2CCC(=O)O)cc(-c2ccc3c(c2)OCO3)c1 [Example 25, 4-[3-[6-(3-Benzo[1,3]dioxol-5-yl-5-ethoxymethyl-phenoxy)-hexyl]-2-(2-carboxy-ethyl)-phenoxy]-butyric acid] | 1.06 |
| CN(C)Cc1cc(OCCCCCCc2cccc(OCCCC(=O)O)c2CCC(=O)O)cc(-c2ccc(Cl)cc2)c1 [Example 34, 4-{2-(2-Carboxy-ethyl)-3-[6-(4′-chloro-5-dimethylaminomethyl-biphenyl-3-yloxy)-hexyl]-phenoxy}-butyric acid] | 0.24 |
| O=C(O)CCCOc1cccc(CCCCCCOc2cc(C(=O)C3CC3)cc(-c3ccc4c(c3)OCO4)c2)c1CCC(=O)O [Example 72, 4-[3-[6-(3-Benzo[1,3]dioxol-5-yl-5-cyclopropanecarbonyl-phenoxy)-hexyl]-2-(2-carboxy-ethyl)-phenoxy]-butyric acid] | 0.16 |
| CC(=O)c1cc(OCCCCCCc2cccc(OCCCC(=O)O)c2CCC(=O)O)cc(-c2ccc3c(c2)OCCO3)c1 [Example 65] | 2.07 |
